The Kd is the constant that tells how readily two partners part at equilibrium.

This is an account of results in paper PMC11927431 (eGastroenterology, 2025).

Like-named read-outs stand apart in the source and are kept apart here.

For data set [1] the following is noted: 3 mg/kg; cited from earlier work.
The target in another data set is CB1R (Mus musculus, UniProt P47746). Put plainly: Radioligand saturation binding assay on brain membrane homogenates. To be noted: read-out: Kd ± S.E.M., 30°C, 60 min.
CB1R, sequence (P47746 whole entry): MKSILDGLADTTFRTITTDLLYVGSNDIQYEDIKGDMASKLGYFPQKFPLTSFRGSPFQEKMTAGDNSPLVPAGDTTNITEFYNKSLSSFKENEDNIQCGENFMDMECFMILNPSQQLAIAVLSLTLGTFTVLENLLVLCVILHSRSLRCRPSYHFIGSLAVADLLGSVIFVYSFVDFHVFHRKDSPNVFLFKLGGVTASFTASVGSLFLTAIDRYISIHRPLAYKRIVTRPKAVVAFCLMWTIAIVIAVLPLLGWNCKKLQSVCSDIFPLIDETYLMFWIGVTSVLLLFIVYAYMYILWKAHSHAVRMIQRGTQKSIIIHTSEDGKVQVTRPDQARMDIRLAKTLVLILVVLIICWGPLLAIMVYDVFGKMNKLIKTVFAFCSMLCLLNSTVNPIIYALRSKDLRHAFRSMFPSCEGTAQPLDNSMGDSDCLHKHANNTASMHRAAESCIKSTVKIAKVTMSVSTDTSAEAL

As to `Cc1c(C(=O)NN2CCCCC2)nn(-c2ccc(Cl)cc2Cl)c1-c1ccc(Cl)cc1` [rimonabant], the Anxiogenic behaviour entry in data set [1] is reported as “induced significant anxiety”.
For the molecule `CCCCCCC(C)(C)c1ccc([C@@H]2C[C@H](O)CC[C@H]2CCCO)c(O)c1` [[^3H]-CP55.940], the figures for the Kd on CB1R (CB1^IEC-/- mouse brain membrane homogenate) and on CB1R (CB1^f/f mouse brain membrane homogenate) were 1.7 nM and 1.68 nM, respectively.
